Experiments:
Experiment in all cases: biochemical
Format in all cases: binding
κ-opioid receptor = target: T1, κ-opioid receptor (Homo sapiens, UniProt P41145); settings: read-out: Ki (nM) ± SEM, κ
T1 construct: expressed in transfected cells; host or cells: CHO cells

μ-opioid receptor = target: T2, μ-opioid receptor (Homo sapiens, UniProt P35372); settings: Ki (nM) ± SEM, μ, Table 1b, N-oxides
T2 construct: expressed in transfected cells; host or cells: CHO cells

δ-opioid receptor = target: T3, δ-opioid receptor (Homo sapiens, UniProt P41143); settings: Table 1b; for Ki: Ki (nM) ± SEM, δ, N-oxides
T3 construct: expressed in transfected cells; host or cells: CHO cells
T3 sequence (P41143 whole entry): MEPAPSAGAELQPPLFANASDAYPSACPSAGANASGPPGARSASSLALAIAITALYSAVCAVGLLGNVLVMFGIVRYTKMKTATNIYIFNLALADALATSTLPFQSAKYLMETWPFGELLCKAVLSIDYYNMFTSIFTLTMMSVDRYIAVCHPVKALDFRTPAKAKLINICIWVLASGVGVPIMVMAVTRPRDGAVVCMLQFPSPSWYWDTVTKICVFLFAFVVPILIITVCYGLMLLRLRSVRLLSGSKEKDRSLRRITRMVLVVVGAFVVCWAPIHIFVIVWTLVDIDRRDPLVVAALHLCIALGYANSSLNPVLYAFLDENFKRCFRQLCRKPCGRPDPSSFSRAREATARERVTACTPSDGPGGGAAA

T1 sequence (P41145 whole entry): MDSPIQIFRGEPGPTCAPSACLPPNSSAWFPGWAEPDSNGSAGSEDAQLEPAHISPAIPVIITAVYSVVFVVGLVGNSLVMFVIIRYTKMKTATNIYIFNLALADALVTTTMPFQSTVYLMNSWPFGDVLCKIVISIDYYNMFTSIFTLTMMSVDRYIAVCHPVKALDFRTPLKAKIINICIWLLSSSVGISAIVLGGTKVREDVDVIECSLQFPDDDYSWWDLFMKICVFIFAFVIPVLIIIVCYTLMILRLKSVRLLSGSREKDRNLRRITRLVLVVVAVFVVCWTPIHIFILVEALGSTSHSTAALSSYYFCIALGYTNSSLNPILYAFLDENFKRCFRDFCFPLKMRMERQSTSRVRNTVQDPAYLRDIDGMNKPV
T2 sequence (P35372 whole entry): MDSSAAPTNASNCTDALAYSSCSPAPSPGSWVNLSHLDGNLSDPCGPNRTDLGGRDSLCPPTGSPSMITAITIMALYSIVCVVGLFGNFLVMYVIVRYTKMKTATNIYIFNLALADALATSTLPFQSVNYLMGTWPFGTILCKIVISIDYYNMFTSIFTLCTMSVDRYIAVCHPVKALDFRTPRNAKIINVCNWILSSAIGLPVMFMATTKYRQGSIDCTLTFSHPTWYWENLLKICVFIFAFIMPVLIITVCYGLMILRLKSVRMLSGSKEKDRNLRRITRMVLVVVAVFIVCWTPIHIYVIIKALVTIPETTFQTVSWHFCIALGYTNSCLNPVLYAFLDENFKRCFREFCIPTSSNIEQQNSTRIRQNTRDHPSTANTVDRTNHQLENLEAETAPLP

SMILES | Ki (κ-opioid receptor) | Ki (μ-opioid receptor) | Ki (δ-opioid receptor) | Inhibition of agonist binding, δ (δ-opioid receptor; concentration not given)
O=C(N[C@@H]1CC[C@@]2(O)[C@H]3Cc4ccc(O)c5c4[C@@]2(CC[N+]3([O-])CC2CC2)[C@H]1O5)c1ccc(Br)cc1 (stereo partly drawn) [Compound 63, 17-Cyclopropylmethyl-3,14β-dihydroxy-4,5α-epoxy-6β-[(4′-bromo)benzamido]morphinan-N-oxide] | 6.3 ± 0.6 nM | 7 ± 0.1 nM | 246 ± 15 nM | 
O=C(NC1CCC2(O)C3Cc4ccc(O)c5c4C2(CC[N+]3([O-])CC2CC2)C1O5)c1ccc(C(F)(F)F)c(F)c1 (stereo not drawn) [Compound 56, 17-Cyclopropylmethyl-3,14β-dihydroxy-4,5α-epoxy-6β-[(3′-fluoro-4′-trifluoromethyl)benzamido]morphinan-N-oxide] | 3.8 ± 0.3 nM | 8.3 ± 0.3 nM | 352 ± 10 nM | 
CN(C(=O)/C=C/c1ccoc1)[C@@H]1CC[C@@]2(O)[C@H]3Cc4ccc(O)c5c4[C@@]2(CC[N+]3([O-])CC2CC2)[C@H]1O5 (relative stereo) [Compound 44, 17-Cyclopropylmethyl-3,14β-dihydroxy-4,5α-epoxy-6β-[N-methyl-trans-3-(3-furyl)acrylamido]morphinan-N-oxide] | 3.9 ± 0.5 nM | 65 ± 7.7 nM | 2510 ± 231 nM | 
COc1ccc(C(=O)N[C@@H]2CC[C@@]3(O)[C@H]4Cc5ccc(O)c6c5[C@@]3(CC[N+]4([O-])CC3CC3)[C@H]2O6)cc1OC (stereo partly drawn) [Compound 29, 17-Cyclopropylmethyl-3,14β-dihydroxy-4,5α-epoxy-6β-[(3′,4′-dimethoxy)benzamido]morphinan-N-oxide] | 71 ± 4.87 nM | 37 ± 2 nM | 621 ± 16.2 nM | 
O=C(N[C@@H]1CC[C@@]2(O)[C@H]3Cc4ccc(O)c5c4[C@@]2(CC[N+]3([O-])CC2CC2)[C@H]1O5)c1cccc(O)c1 (stereo partly drawn) [Compound 34, 17-Cyclopropylmethyl-3,14β-dihydroxy-4,5α-epoxy-6β-[(3′-hydroxy)benzamido]morphinan-N-oxide] | 49 ± 4 nM | 34 ± 2 nM | 1170 ± 101 nM | 
COc1cccc(C(=O)N[C@@H]2CC[C@@]3(O)[C@H]4Cc5ccc(O)c6c5[C@@]3(CC[N+]4([O-])CC3CC3)[C@H]2O6)c1 (stereo partly drawn) [Compound 30, 17-Cyclopropylmethyl-3,14β-dihydroxy-4,5α-epoxy-6β-[(3′-methoxy)benzamido]morphinan-N-oxide] | 9.7 ± 0.95 nM | 16 ± 1 nM | 444 ± 39.1 nM | 
N#Cc1cccc(C(=O)N[C@@H]2CC[C@@]3(O)[C@H]4Cc5ccc(O)c6c5[C@@]3(CC[N+]4([O-])CC3CC3)[C@H]2O6)c1 (stereo partly drawn) [Compound 53, 17-Cyclopropylmethyl-3,14β-dihydroxy-4,5α-epoxy-6β-[(3′ cyano)benzamido]morphinan-N-oxide] | 426 ± 21.5 nM | 117 ± 7.8 nM |  | <50% inh
O=C(N[C@@H]1CC[C@@]2(O)[C@H]3Cc4ccc(O)c5c4[C@@]2(CC[N+]3([O-])CC2CC2)[C@H]1O5)c1ccc(Cl)cc1 (stereo partly drawn) [Compound 35, 17-Cyclopropylmethyl-3,14β-dihydroxy-4,5α-epoxy-6β-[(4′-chloro)benzamido]morphinan-N-oxide] | 1.8 ± 0.1 nM | 4.7 ± 0.12 nM | 219 ± 7.97 nM | 
COc1cccc(C(=O)N[C@@H]2CC[C@@]3(O)[C@H]4Cc5ccc(O)c6c5[C@@]3(CC[N+]4([O-])CC3CC3)[C@H]2O6)c1 (stereo partly drawn) [Compound 42, 17-Cyclopropylmethyl-3,14β-dihydroxy-4,5α-epoxy-6β-[(3′-methoxy)benzamido]morphinan-N-oxide] | 16 ± 2 nM | 49 ± 8.6 nM | 1050 ± 38 nM | 
O=C(NC1CCC2(O)C3Cc4ccc(O)c5c4C2(CC[N+]3([O-])CC2CC2)C1O5)c1ccc(Cl)c(F)c1 (stereo not drawn) [Compound 59, 17-Cyclopropylmethyl-3,14β-dihydroxy-4,5α-epoxy-6β-[(4′-chloro-3′-fluoro)benzamido]morphinan-N-oxide] | 2.5 ± 0.09 nM | 14.1 ± 0.5 nM | 390 ± 18 nM | 
O=C(Cc1ccccc1)N[C@@H]1CC[C@@]2(O)[C@H]3Cc4ccc(O)c5c4[C@@]2(CC[N+]3([O-])CC2CC2)[C@H]1O5 (stereo partly drawn) [Compound 33, 17-Cyclopropylmethyl-3,14β-dihydroxy-4,5α-epoxy-6β-(phenylacetamido)morphinan-N-oxide] | 47 ± 4 nM | 43 ± 3 nM | 1400 ± 40.5 nM | 

Source: US8778958B2, “Synthesis of metabolically stable agents for alcohol and drug abuse” (priority 2008, dated 2014)
